{"source": "patent US11752149B2", "about": "“Muscarinic acetylcholine M1 receptor antagonists” (Pipeline Therapeutics, Inc., priority 2019, dated 2023)"}
{"target": "human M1 receptor (Homo sapiens (Human), UniProt P11229)", "sequence (P11229 whole entry)": "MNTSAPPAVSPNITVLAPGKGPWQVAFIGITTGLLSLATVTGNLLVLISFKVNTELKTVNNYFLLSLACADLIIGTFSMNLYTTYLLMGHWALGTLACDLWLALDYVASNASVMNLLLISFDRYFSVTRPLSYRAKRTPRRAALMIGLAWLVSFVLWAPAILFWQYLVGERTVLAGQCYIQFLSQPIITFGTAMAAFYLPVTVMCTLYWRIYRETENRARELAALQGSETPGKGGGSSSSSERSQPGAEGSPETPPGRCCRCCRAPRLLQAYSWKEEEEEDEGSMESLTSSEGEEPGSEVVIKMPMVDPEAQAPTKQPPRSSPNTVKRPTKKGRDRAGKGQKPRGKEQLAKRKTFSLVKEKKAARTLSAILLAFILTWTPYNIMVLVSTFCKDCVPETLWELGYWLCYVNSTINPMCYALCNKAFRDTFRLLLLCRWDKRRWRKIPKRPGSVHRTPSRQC", "assay": "In vitro functional assay of muscarinic acetylcholine receptor activity, aequorin calcium flux, reversal of EC80 acetylcholine", "format": "cell-based", "conditions": "not given", "protocol": "(§1) CHO-K1 cells stably expressing human M1 receptor with aequorin (Perkin Elmer) were grown in F12 media (Gibco) containing 10% FBS (ATCC), 0.4 mg/mL geneticin (Sigma-Aldrich) and 0.25 mg/mL Zeocin (Invitrogen). Cells were grown as per the manufacturer's protocol. For compound testing, cells were grown to confluency and detached gently with Accutase (Sigma-Aldrich) followed by centrifugation for 5 min at 150×g. Cells were then re-suspended in assay buffer (i.e. DMEM/F-12 HEPES without phenol red (Invitrogen) with 0.1% BSA (Sigma-Aldrich)) at a density of 5×10^6 cells/ml. Under sterile conditions, 5 μM coelenterazine (Invitrogen) was added to the cells, mixed, then incubated at room temperature protected from light, with gentle agitation, for 4 h.\n(§2) Primary compound plates were prepared in 100% DMSO in opaque 96-well plates (VWR) and serially diluted in half log increments. Secondary compound plates were prepared at 3× concentration in assay buffer. Compounds were added to white, clear bottom tissue culture treated 96-well plates (Fisher Scientific). Coelenterazine-loaded cells were then added at 5×10^5 cells/well.\n(§3) Compounds and cells were incubated at room temperature for 30 min in the dark. Acetylcholine at the EC80 concentration was added and calcium flux measured using a FlexStation 3 (Molecular Devices). Sigmoidal dose-response curves were generated by measuring luminescence over 40 sec and calculating the area under the curve. Dose response curves and IC50 values were generated using Prism (GraphPad). Compounds were tested at a final concentration range of 100 pM to 10 μM in 0.1% DMSO.", "units": {"IC50": "nM"}}
{"smiles": "N#Cc1ccc(N2C3CCC2CN(C(=O)CCS(=O)(=O)c2cccc(F)c2)C3)nc1", "note": "[Example 7, 6-{3-[3-(3-fluorobenzenesulfonyl)propanoyl]-3,8-diazabicyclo[3.2.1]octan-8-yl}pyridine-3-carbonitrile]", "IC50": "10 to 100"}
{"smiles": "COc1cccc(S(=O)(=O)CCC(=O)N2CC3CCC(C2)N3c2ccc(C#N)c(F)c2)c1", "note": "[Example 20, 2-fluoro-4-{3-[3-(3-methoxybenzenesulfonyl)propanoyl]-3,8-diazabicyclo [3.2.1]octan-8-yl}benzonitrile]", "IC50": "10 to 100"}
{"smiles": "N#Cc1ccc(N2C3CCC2CN(C(=O)CCS(=O)(=O)c2cccc(Br)c2)C3)nc1", "note": "[Example 22, 6-{3-[3-(3-bromobenzenesulfonyl)propanoyl]-3,8-diazabicyclo [3.2.1]octan-8-yl}pyridine-3-carbonitrile]", "IC50": "100 to 1000"}
{"smiles": "N#Cc1ccc(N2C3CCC2CN(C(=O)CCS(=O)(=O)c2ccccc2C(F)F)C3)nc1", "note": "[Example 26, 6-(3-{3-[2-(difluoromethyl)benzene-sulfonyl]propanoyl}-3,8-diazabicyclo-[3.2.1]octan-8-yl)pyridine-3-carbonitrile]", "IC50": "100 to 1000"}
{"smiles": "COc1cccc(S(=O)(=O)CCC(=O)N2CC3CCC(C2)N3c2ccc(F)c(C#N)c2)c1", "note": "[Example 19, 2-fluoro-5-{3-[3-(3-methoxybenzenesulfonyl)propanoyl]-3,8-diazabicyclo [3.2.1]octan-8-yl}benzonitrile]", "IC50": "100 to 1000"}
{"smiles": "COc1ccccc1S(=O)(=O)CCC(=O)N1CC2CCC(C1)N2c1ccc(C#N)cn1", "note": "[Example 12, 6-{3-[3-(2-methoxybenzenesulfonyl)propanoyl]-3,8-diazabicyclo [3.2.1]octan-8-yl}pyridine-3-carbonitrile]", "IC50": "10 to 100"}
{"smiles": "N#Cc1ccc(N2C3CCC2CN(C(=O)CCS(=O)(=O)c2ccccc2C2CC2(F)F)C3)nc1", "note": "(racemic) [Example 5, 6-(3-(3-((2-(2,2-difluorocyclopropyl)phenyl)-sulfonyl)-propanoyl)-3,8-diazabicyclo[3.2.1]octan-8-yl)nicotinonitrile]", "IC50": "10 to 100"}
{"smiles": "COc1cccc(S(=O)(=O)CCC(=O)N2CC3CCC(C2)N3c2ccc(C(F)(F)F)cn2)c1", "note": "[Example 16, 3-(3-methoxybenzenesulfonyl)-1-{8-[5-(trifluoromethyl)pyridin-2-yl]-3,8-diazabicyclo[3.2.1]octan-3-yl}propan-1-one]", "IC50": "100 to 1000"}
{"smiles": "N#Cc1ccc(N2C3CCC2CN(C(=O)CCS(=O)(=O)c2ccnc(C4CC4)c2)C3)nc1", "note": "[Example 25, 6-(3-{3-[(2-cyclopropyl-pyridin-4-yl)sulfonyl]propanoyl}-3,8-diazabicyclo [3.2.1]octan-8-yl)pyridine-3-carbonitrile]", "IC50": "100 to 1000"}
{"smiles": "COc1c(F)cccc1S(=O)(=O)CCC(=O)N1CC2CCC(C1)N2c1ccc(C#N)cn1", "note": "[Example 14, 6-{3-[3-(3-fluoro-2-methoxybenzenesulfonyl)propanoyl]-3,8-diazabicyclo [3.2.1]octan-8-yl}pyridine-3-carbonitrile]", "IC50": "10 to 100"}
{"smiles": "Cc1ccc(F)cc1S(=O)(=O)CCC(=O)N1CC2CCC(C1)N2c1ccc(C#N)cn1", "note": "[Example 32, 6-(3-(3-((5-fluoro-2-methylphenyl)sulfonyl)propanoyl)-3,8-diazabicyclo [3.2.1]octan-8-yl)nicotinonitrile]", "IC50": "100 to 1000"}
{"smiles": "COc1cccc(S(=O)(=O)CCC(=O)N2CC3CCC(C2)N3c2ccc(C(F)(F)F)nn2)c1", "note": "[Example 17, 3-(3-methoxybenzenesulfonyl)-1-{8-[6-(trifluoromethyl)pyridazin-3-yl]-3,8-diazabicyclo[3.2.1]octan-3-yl}propan-1-one]", "IC50": "100 to 1000"}
{"smiles": "N#Cc1ccc(N2C3CCC2CN(C(=O)CCS(=O)(=O)c2ccccc2Br)C3)nc1", "note": "[Example 28, 6-(3-(3-((2-bromophenyl)sulfonyl)propanoyl)-3,8-diazabicyclo [3.2.1]octan-8-yl)nicotinonitrile]", "IC50": "100 to 1000"}
{"smiles": "COc1ccc(F)cc1S(=O)(=O)CCC(=O)N1CC2CCC(C1)N2c1ccc(C#N)cn1", "note": "[Example 13, 6-{3-[3-(5-fluoro-2-methoxybenzenesulfonyl)propanoyl]-3,8-diazabicyclo [3.2.1]octan-8-yl}pyridine-3-carbonitrile]", "IC50": "10 to 100"}
{"smiles": "COc1cccc(S(=O)(=O)CCC(=O)N2CC3CCC(C2)N3c2ccc(C)nn2)c1", "note": "[Example 9, 3-(3-methoxybenzenesulfonyl)-1-[8-(6-methylpyridazin-3-yl)-3,8-diazabicyclo[3.2.1]octan-3-yl]propan-1-one]", "IC50": "100 to 1000"}
{"smiles": "N#Cc1ccc(N2C3CCC2CN(C(=O)CCS(=O)(=O)c2cccc(OC4CC4)c2)C3)nc1", "note": "[Example 21, 6-{3-[3-(3-cyclopropoxybenzenesulfonyl)propanoyl]-3,8-diazabicyclo [3.2.1]octan-8-yl}pyridine-3-carbonitrile]", "IC50": "100 to 1000"}
{"smiles": "N#Cc1ccc(N2C3CCC2CN(C(=O)CCS(=O)(=O)c2ccccc2C(F)(F)F)C3)nc1", "note": "[Example 29, 6-(3-(3-((2-(trifluoromethyl)phenyl)sulfonyl)propanoyl)-3,8-diazabicyclo[3.2.1]octan-8-yl)nicotinonitrile]", "IC50": "100 to 1000"}
{"smiles": "CC(F)(F)c1ccccc1S(=O)(=O)CCC(=O)N1CC2CCC(C1)N2c1ccc(C#N)cn1", "note": "[Example 31, 6-(3-(3-((2-(1,1-difluoroethyl)phenyl)sulfonyl)propanoyl)-3,8-diazabicyclo [3.2.1]octan-8-yl)nicotinonitrile]", "IC50": "100 to 1000"}
{"smiles": "N#Cc1ccc(N2C3CCC2CN(C(=O)CCS(=O)(=O)c2cccnc2C2CC2)C3)nc1", "note": "[Example 27, 6-(3-{3-[(2-cyclopropylpyridin-3-yl)sulfonyl]propanoyl}-3,8-diazabicyclo[3.2.1]octan-8-yl)pyridine-3-carbonitrile]", "IC50": "10 to 100"}
{"smiles": "COc1cc(F)cc(S(=O)(=O)CCC(=O)N2CC3CCC(C2)N3c2ccc(C#N)cn2)c1", "note": "[Example 11, 6-{3-[3-(3-fluoro-5-methoxybenzenesulfonyl)propanoyl]-3,8-diazabicyclo [3.2.1]octan-8-yl}pyridine-3-carbonitrile]", "IC50": "10 to 100"}
{"smiles": "Cc1cc(F)cc(S(=O)(=O)CCC(=O)N2CC3CCC(C2)N3c2ccc(C#N)cn2)c1", "note": "[Example 33, 6-(3-(3-((3-fluoro-5-methylphenyl)sulfonyl)propanoyl)-3,8-diazabicyclo [3.2.1]octan-8-yl)nicotinonitrile]", "IC50": "100 to 1000"}
{"target": "human M1 receptor (Homo sapiens (Human), UniProt P11229)", "assay": "In vitro functional assay of muscarinic acetylcholine receptor activity, aequorin calcium flux, reversal of EC80 acetylcholine", "format": "cell-based", "conditions": "CHO-K1 cells expressing human M1 receptor with aequorin; acetylcholine at EC80; read-out: M1 IC50", "protocol": "as §1, §2, §3", "units": {"IC50": "nM"}}
{"smiles": "N#Cc1ccc(N2C3CCC2CN(C(=O)CCCS(=O)(=O)c2ccccc2I)C3)nc1", "note": "[Example 1, 6-(3-(4-((2-iodophenyl)sulfonyl)butanoyl)-3,8-diazabicyclo[3.2.1]octan-8-yl)nicotinonitrile]", "IC50": "< 10"}
{"smiles": "COc1cccc(S(=O)(=O)CCC(=O)N2CC3CCC(C2)N3c2ccc(C)nc2)c1", "note": "[Example 10, 3-(3-methoxybenzenesulfonyl)-1-[8-(6-methylpyridin-3-yl)-3,8-diazabicyclo[3.2.1]octan-3-yl]propan-1-one]", "IC50": "1000 to 10000"}
{"smiles": "CC(C)(O)c1cc(S(=O)(=O)CCC(=O)N2CC3CCC(C2)N3c2ccc(C#N)cn2)ccc1F", "note": "[Example 6, 6-(3-(3-((4-fluoro-3-(2-hydroxypropan-2-yl)phenyl)-sulfonyl)propanoyl)-3,8-diazabicyclo[3.2.1]octan-8-yl)nicotinonitrile]", "IC50": "1000 to 10000"}
{"smiles": "COc1cccc(S(=O)(=O)CCC(=O)N2CC3CCC(C2)N3c2ccc(C)cn2)c1", "note": "[Example 18, 3-(3-methoxybenzenesulfonyl)-1-[8-(5-methylpyridin-2-yl)-3,8-diazabicyclo[3.2.1]octan-3-yl]propan-1-one]", "IC50": "1000 to 10000"}
